Measurements published in patent US20070270591A1, “Iron (II) amino acid chelates with reducing agents attached thereto” (priority 2006, published 2007).

Conditions: no method given; for absorption compared with ferrous sulfate: comparison with ferrous sulfate

Compound | absorption relative to ferric trisglycinate (absorbed x times better) (comparison with ferric trisglycinate) | absorption compared with ferrous sulfate
NCC(=O)[O-].NCC(=O)[O-].[Fe+2] [Ferrous bisglycinate] | 2.3 times | better than ferrous sulfate
NCC(=O)O.NCC(=O)O.NCC(=O)O.[Fe] [ferric trisglycinate] | – | better than ferrous sulfate
